Data as given in US20260191793A1, “HBV SPECIFIC EXOSOMES AND USES THEREOF” (priority 2022, published 2026).

Tested on: HBV replication in HepG2/2.2.15 cells
Experiment: Antiviral efficiency of synthetic gRNA/Cas9 RNPs in HepG2/2.2.15 cells (HBsAg/HBeAg ELISA, HBV mRNA and HBV DNA real-time PCR)
Assay type: cell-based, Hepatitis B virus (HBV)
Design: reduction in HBsAg expression / reduction of HBV mRNA expression: concentration or dose not given beside the values
Details: for reduction of HBV mRNA expression: HepG2/2.2.15 cells, real-time PCR, vs gRNAc
Protocol: The HepG2.2.15 Human Hepatoblastoma cell line (Cat #SCC249, MilliporeSigma, Burlington, MA) is a traditional HBV cellular model that is widely used for studying HBV infection and drug development. HepG2.2.15 cells display constitutive HBV RNA transcription and DNA replication, but a lesser detection of cccDNA by Southern blot and PCR detection. The HepG2/2.2.15 cells were cultured in DMEM (Cat #MT10013CV, Fisher Scientific, Waltham, MA) supplemented with 10% Fetal bovine serum, penicillin, and streptomycin (50 ug/ml each; Fisher Scientific) and maintained at 37° C. and 5% CO2 atmosphere. The Amaxa Cell Line Nucleofector Kit V (Lonza VCA-1003) was used to deliver gRNA/Cas9 into HepG2/2.2.15 cells stably expressing HBV. For each transfection, 160 μM gRNA and 160 μM tracrRNA were first incubated at 37° C. for 30 minutes, followed by adding 80 μM Cas9 protein and incubating at 37° C. for 15 minutes. Approximately 40 μM of the gRNA/Cas9 complex was transfected into HepG2/2.2.15 cells (5×10^5) following the manufacturer's instructions. After 72 hours, the culture supernatants were harvested to measure HBV antigens by ELISA, and the cell pellets were used to determine HBV DNA or mRNA levels by real-time-PCR.
The levels of HBsAg and HBeAg in the supernatants of cell cultures were determined by ELISA (Cat #KA0286 and NBP2-600029, Novus Biologicals, Littleton, CO) according to the manufacturer's protocol. The optical density of antigen levels was measured at 450 nm using a microplate spectrophotometer. The samples were run in triplicate, and the experiments were repeated at least three times.
Total RNA was extracted from the cell pellets by the RNeasy Mini kit (Cat #74104, QIAGEN, Germantown, MD), and 1 μg RNA was converted to cDNA using the Applied Biosystems High-Capacity cDNA Reverse Transcription Kit (Cat #43-688-14, ThermoFisher, Waltham, MA). Quantitative real-time PCR (real-time-qPCR) was performed using iTaq Universal SYBR Green Supermix (Cat #1725124, Bio-Rad, Hercules, CA). The PCR primers were: HBV mRNA forward, 5′-[…]-3′ (SEQ ID NO: 52), reverse, 5′-[…]-3′ (SEQ ID NO: 53); HBV pgRNA forward 5′-[…]-3′ (SEQ ID NO: 54), reverse 5′-[…]-3′ (SEQ ID NO: 55); and GAPDH forward 5′-[…]-3′ (SEQ ID NO: 56), reverse 5′-[…]-3′ (SEQ ID NO: 57). The gene expression levels were determined by the […] method and values were normalized to GAPDH expression as an internal control.
Total and protein-free HBV DNAs were extracted from whole cell lysate using the Hirt DNA method according to a previously published protocol. For HBV cccDNA analysis, the protein-free DNA was treated with 10 units of T5 exonuclease (NEB) at 37° C. for 30 min, followed by 95° C. for 5 min, and diluted 4-fold with nuclease-free water. Next, the cccDNA was cleaned with a DNA clean and concentrator kit (ZYMO Research, Irvine, CA) and used for PCR. HBV total DNA and cccDNA were analyzed by real-time PCR using a TaqMan PCR assay. The primers and probe used to amplify HBV total DNA were: HBV total DNA forward: 5′-[…]-3′ (SEQ ID NO: 58), reverse 5′-[…]-3′ (SEQ ID NO: 59), and internal probe: 5′-FAM-[…]-TAMRA-3′ (SEQ ID NO: 60). The primers and probe used to amplify HBV cccDNA (Genotype D, subtype ayw) were: forward: 5′-[…]-3′ (SEQ ID NO: 61), reverse 5′-[…]-3′ (SEQ ID NO: 62), and internal probe 5′-FAM-[…]-TAMRA-3′ (SEQ ID NO: 63). The PCR reactions were performed in 20 μl volumes and contained 2 μl DNA. The PCR conditions were: 95° C. for 10 min, followed by 45 cycles of 95° C. for 15 s and 64° C. for 30 s. The DNA levels were determined by the […] method and values were normalized to the control group.
Because the hepatoma cell line HepG2/2.2.15 is a traditional HBV cellular model used to test the efficacy and cytotoxicity of anti-HBV drugs, the synthetic gRNA/Cas9 RNPs were tested for their antiviral efficiency in HepG2/2.2.15 cells. […]

Sequence | reduction of HBV mRNA expression | reduction in HBsAg expression (HepG2/2.2.15 supernatant, 3 days after nucleofection, ELISA, vs scrambled gRNAc) [%]
GATTGAGACCTTCGTCTGCGNGG (guide GAUUGAGACCUUCGUCUGCGNGG; complexed with Cas9 as ribonucleoprotein, chemistry not given here) [gRNA1, tested as synthetic gRNA/Cas9 RNP] | ~ 50% | –
GAAGCGAAGTGCACACGGTCNGG (guide GAAGCGAAGUGCACACGGUCNGG; complexed with Cas9 as ribonucleoprotein, chemistry not given here) [gRNA8, tested as synthetic gRNA/Cas9 RNP] | – | 50
GTCGCAGAAGATCTCAATCTNGG (guide GUCGCAGAAGAUCUCAAUCUNGG; complexed with Cas9 as ribonucleoprotein, chemistry not given here) [gRNA3, tested as synthetic gRNA/Cas9 RNP] | ~ 50% | –
